Measured values reported in US12128035B2, “Activating pyruvate kinase R” (Novo Nordisk Health Care AG, priority 2021, dated 2024).

System: 2,3-DPG blood levels
Assay: Phase 1 SAD/MAD: blood 2,3-DPG (LC-MS/MS) in healthy volunteers
Format: in vivo, human
Method: In this study, SAD/MAD cohorts are randomized (3 to 1) to receive Compound 1 or placebo (P). Compound 1 was evaluated first in 4 healthy SAD cohorts and 4 healthy MAD (14-day dosing period) cohorts. Based on the safety, and PK/PD profile from HS, Compound 1 is then evaluated in 1 SCD SAD cohort and 2 SCD MAD cohorts. Specifically, based on the safety and pharmacokinetic/pharmacodynamics (PK/PD) profile in healthy volunteer studies, Compound 1 is evaluated in patients (pts) with SCD, first in a single dose (SD or SAD) cohort and then in multiple-dose (MD or MAD) cohorts (14-day and 12-week). Safety assessments include AEs, vital signs, ECGs and laboratory parameters. PK/PD blood sampling was performed on Day 1 (SAD/MAD) and Day 14 (MAD) and up to 72 h after the last dose and at the end-of-study visit. PD parameters included 2,3-DPG, ATP, and p50 in all cohorts with additional PD studies (including oxygen scan) performed only in the SCD cohorts. PD parameters included 2,3-DPG, ATP, p50, RBC deformability with controlled deoxygenation and reoxygenation (Lorrca® oxygen scan) and varying osmolality (Lorrca® osmoscan)). To maintain study blind, pt identifiers were removed when needed.
In the SAD cohorts, the subjects' blood 2,3-DPG levels were measured periodically after dosing by a qualified LC-MS/MS method for the quantitation of 2,3-DPG in blood. Decreased 2,3-DPG blood levels were observed 6 hours following a single dose of Compound 1 at all dose levels (earlier timepoints were not collected). Maximum decreases in 2,3-DPG levels generally occurred ˜24 hours after the first dose with the reduction sustained ˜48-72 hr postdose. Table 15 reports the median percentage change in 2,3-DPG blood levels, relative to baseline, measured over time in healthy volunteers after a single dose of Compound 1 (200 mg, 400 mg, 700 mg, or 1000 mg) or placebo. Table 16 reports the mean percentage change in 2,3-DPG blood levels, relative to baseline, measured over time in healthy volunteers after a single dose of Compound 1 (200 mg, 400 mg, 700 mg, or 1000 mg). Accordingly, the median and mean reduction in the concentration of 2,3-DPG, relative to baseline, was at least about 30% at all dose levels tested 24 hours after administration of the single dose.
In the MAD cohorts, the subjects' blood 2,3-DPG levels were measured periodically after dosing by a qualified LC-MS/MS method for the quantitation of 2,3-DPG in blood. […] Table 18B reports the mean percentage change in 2,3-DPG blood levels, relative to baseline, measured over time after the first dose on days 1 and 14 in healthy volunteers who received daily doses of Compound 1 (100 mg BID, 200 mg BID, 300 mg BID, or 400 mg QD) for 14 days. Accordingly, the median and mean reduction in the concentration of 2,3-DPG, relative to baseline, was at least about 25% at all dose levels tested 24 hours after administration of the first dose on day 1 and at least about 40% at all dose levels tested 24 hours after administration of the first dose on day 14.
The following procedures are employed for the analysis of ATP and 2,3-DPG in human whole blood K2EDTA using a protein precipitation extraction procedure and analysis by LC-MS/MS.
The following procedures are used for sample extraction prior to analysis via LC-MS/MS. 15.0 μL of the calibration standards, quality controls, matrix blanks, and samples are aliquoted into a 96-well plate. 50.0 μL of the internal standard spiking solution is added to all samples on the plate, with the exception of the matrix blank samples; 50.0 μL of water is added to the matrix blank samples. Subsequently, 150 μL of water is added to all samples on the plate. The plate is then covered and agitated by vortex at high speed for ten minutes, after which 750 μL of methanol is added to all samples on the plate. The plate is covered and agitated by vortex for approximately 1 minute. The plate is then centrifuged at approximately 3500 RPM at approximately 4° C. for five minutes. […]

[1] = HV 100 mg BID, Day 1, 0 h after first daily dose
[2] = HV 100 mg BID, Day 1, 6 h after first daily dose
[3] = HV 100 mg BID, Day 1, 8 h after first daily dose
[4] = HV 100 mg BID, Day 1, 12 h after first daily dose
[5] = HV 100 mg BID, Day 1, 16 h after first daily dose
[6] = HV 100 mg BID, Day 1, 24 h after first daily dose
[7] = HV 100 mg BID, Day 14, 0 h after first daily dose
[8] = HV 100 mg BID, Day 14, 6 h after first daily dose
[9] = HV 100 mg BID, Day 14, 8 h after first daily dose
[10] = HV 100 mg BID, Day 14, 12 h after first daily dose
[11] = HV 100 mg BID, Day 14, 16 h after first daily dose
[12] = HV 100 mg BID, Day 14, 24 h after first daily dose
[13] = HV 100 mg BID, Day 14, 48 h after first daily dose
[14] = HV 100 mg BID, Day 14, 72 h after first daily dose
[15] = HV 200 mg BID, Day 1, 0 h after first daily dose
[16] = HV 200 mg BID, Day 1, 6 h after first daily dose
[17] = HV 200 mg BID, Day 1, 8 h after first daily dose
[18] = HV 200 mg BID, Day 1, 12 h after first daily dose
[19] = HV 200 mg BID, Day 1, 16 h after first daily dose
[20] = HV 200 mg BID, Day 1, 24 h after first daily dose
[21] = HV 200 mg BID, Day 14, 0 h after first daily dose
[22] = HV 200 mg BID, Day 14, 6 h after first daily dose
[23] = HV 200 mg BID, Day 14, 8 h after first daily dose
[24] = HV 200 mg BID, Day 14, 12 h after first daily dose

## O=C([C@H](CO)c1ccccc1)N1CC2=C(C1)CN(S(=O)(=O)c1cnc3c(c1)OCCO3)C2 (single isomer, unassigned) [Compound 1]
[1]
  Mean Percentage Change in 2,3-DPG Levels: 0%
  Median Percentage Change in 2,3-DPG Levels: 0.0%
[2]
  Mean Percentage Change in 2,3-DPG Levels: −15%
  Median Percentage Change in 2,3-DPG Levels: −16%
[3]
  Mean Percentage Change in 2,3-DPG Levels: −13%
  Median Percentage Change in 2,3-DPG Levels: −12%
[4]
  Mean Percentage Change in 2,3-DPG Levels: −18%
  Median Percentage Change in 2,3-DPG Levels: −18%
[5]
  Mean Percentage Change in 2,3-DPG Levels: −20%
  Median Percentage Change in 2,3-DPG Levels: −18%
[6]
  Mean Percentage Change in 2,3-DPG Levels: −29%
  Median Percentage Change in 2,3-DPG Levels: −28%
[7]
  Mean Percentage Change in 2,3-DPG Levels: −43%
  Median Percentage Change in 2,3-DPG Levels: −42.0%
[8]
  Mean Percentage Change in 2,3-DPG Levels: −44%
  Median Percentage Change in 2,3-DPG Levels: −44%
[9]
  Mean Percentage Change in 2,3-DPG Levels: −45%
  Median Percentage Change in 2,3-DPG Levels: −45%
[10]
  Mean Percentage Change in 2,3-DPG Levels: −44%
  Median Percentage Change in 2,3-DPG Levels: −44%
[11]
  Mean Percentage Change in 2,3-DPG Levels: −42%
  Median Percentage Change in 2,3-DPG Levels: −44%
[12]
  Mean Percentage Change in 2,3-DPG Levels: −43%
  Median Percentage Change in 2,3-DPG Levels: −44%
[13]
  Mean Percentage Change in 2,3-DPG Levels: −32%
  Median Percentage Change in 2,3-DPG Levels: −35%
[14]
  Mean Percentage Change in 2,3-DPG Levels: −22%
  Median Percentage Change in 2,3-DPG Levels: −20%
[15]
  Mean Percentage Change in 2,3-DPG Levels: 0%
  Median Percentage Change in 2,3-DPG Levels: 0.0%
[16]
  Mean Percentage Change in 2,3-DPG Levels: −16%
  Median Percentage Change in 2,3-DPG Levels: −13%
[17]
  Mean Percentage Change in 2,3-DPG Levels: −19%
  Median Percentage Change in 2,3-DPG Levels: −22%
[18]
  Mean Percentage Change in 2,3-DPG Levels: −22%
  Median Percentage Change in 2,3-DPG Levels: −23%
[19]
  Mean Percentage Change in 2,3-DPG Levels: −33%
  Median Percentage Change in 2,3-DPG Levels: −34%
[20]
  Mean Percentage Change in 2,3-DPG Levels: −45%
  Median Percentage Change in 2,3-DPG Levels: −48%
[21]
  Mean Percentage Change in 2,3-DPG Levels: −49%
  Median Percentage Change in 2,3-DPG Levels: −49%
[22]
  Mean Percentage Change in 2,3-DPG Levels: −49%
  Median Percentage Change in 2,3-DPG Levels: −49%
[23]
  Mean Percentage Change in 2,3-DPG Levels: −47%
  Median Percentage Change in 2,3-DPG Levels: −44%
[24]
  Mean Percentage Change in 2,3-DPG Levels: −43%
  Median Percentage Change in 2,3-DPG Levels: −42%
